The structures appear in SMILES notation. Where two headings read alike, the source gives them in different places.

Experimental findings from publication PMC12920295, “Novel radiohybrid PET-Tracers for SST2-targeted imaging of neuroendocrine tumors” (European Journal of Nuclear Medicine and Molecular Imaging, 2025) are described below.

The test system of one data set is AR42J cells. As to the kind of experiment: Internalization into AR42J cells relative to [125I]TOC. It is filed as cell-based. Particulars: percentage compared to internal reference [125I]TOC. The method, then: AR42J cells (European Collection of Cell Cultures, Salisbury, UK) were grown in RPMI 1640 medium (with 2 mM, L-Glu, 10% FCS; v/v, 37 °C, 5% CO2), harvested 24 ± 2 h and seeded in 24-well poly-L-lysine plates (2.0 × 10^5 cells/well in 1 ml culture medium). After removal of the medium, the cells were washed with assay medium (300 µl, RPMI 1640 with 2 mM L-Glu, 5% BSA; v/v) and incubated in assay medium (200 µl, 15 min, 37 °C, 5% CO2). 25 µl of the ^18F-labeled ligand (20 nM) and [^125I]TOC (1 nM) in assay medium were added followed by either 25 µl TOC in assay medium (100 µM, competition experiment) or 25 µl of assay medium (internalization experiment). Cells were incubated at 37 °C for 15, 30, and 60 min (n = 3 per compound and time point), respectively, and chilled on ice. The supernatant was collected, the well washed with ice-cold RPMI 1640 (300 µl), and the two fractions combined (unbound ligand). The cells were incubated with acid wash solution (300 µl, 0.9% NaCl, 50 mM NaOAc/AcOH buffer, pH = 4.6, 15 min, 4 °C) to remove receptor-bound radioligand. The supernatant was collected, and the cells washed with 300 µl ice-cold acid wash solution (combined fractions: acid releasable, receptor bound ligand). The cells were lysed with NaOH solution (300 µl, 1 M, 15 min, RT), washed with 300 µl of the same solution, the two fractions combined (internalized ligand), and all activities quantified using a γ-counter.

Data set [1] concerns the target T1, human serum albumin (HSA) (Homo sapiens, UniProt P02768).
T1 construct: purchased H13H-2433
As to the kind of experiment: HSA binding by high performance affinity chromatography (HPAC). It is filed as in vitro ADME. Particulars: affinity to HSA by affinity chromatography (Chiralpak HSA column). How it is done: For the determination of binding to human serum albumin (HSA) using HPLC, a Chiralpak HSA column (50 × 3 mm, 5 μm, H13H-2433) was used at a constant flow rate of 0.5 ml/min. The mobile phase (A: NH4OAc, 50 mM in H2O, pH 6.9 and B: iPrOH) was freshly prepared for each day.

The nature of data set [2]: Lipophilicity LogDpH=7.4, shake flask method. It is filed as physicochemical. As to conditions: PBS (pH = 7.4)/n-octanol. The method, then: The LogDpH=7.4 was determined using a modified shake flask method as previously described.
Data set [3] is described as follows: Biodistribution 1 h p.i. in AR42J xenograft bearing CD1 nu/nu mice. It is filed as in vivo. As to conditions: female, mouse, intravenous, total radioactivity, average ± Stdev. How it is done: The 8-week-old female CD1 nu/nu mice were purchased from Charles River (Sulzfeld, Germany). Animal experiments were conducted according to general animal welfare regulations (German animal protection act, as amended on 18.05.2018, Art. 141 G v. 29.3.2017 I 626, approval no. 55.2-1.2-54–2532-71-13 by the General Administration of the Free State of Bavaria; Swiss animal welfare regulations: Animal Welfare Act SR 455, license: Canton de Vaud, 3781 d). To establish tumor xenografts, AR42J cells (5 × 10^6 cells in 100 µl serum-free culture medium) were inoculated subcutaneously onto the shoulder. Mice were used for experiments when tumors had grown to a diameter of 5–9 mm (7–15 days after inoculation).
Approximately 0.5–2.5 MBq (0.05–0.20 nmol) of the ^18F-labeled ligands were injected into the tail vein of AR42J xenograft-bearing mice under isoflurane anesthesia (1.5% alveolar concentration). The mice were sacrificed 1 h post injection (n = 3–5). Organs were removed, weighed, and the activity quantified (γ-counter).
An unpaired Welch’s t-test was applied using the GraphPad Prism software (version 10.1.2). Standard deviations for tumor-to-organ (T/O) ratios were calculated using the rules of error propagation. Thresholds for statistical significance are defined as: p > 0.05 (ns); p ≤ 0.05 (*); p ≤ 0.01 (**); p ≤ 0.001 (***); p ≤ 0.0001 (****).

T1 sequence (P02768 25-609): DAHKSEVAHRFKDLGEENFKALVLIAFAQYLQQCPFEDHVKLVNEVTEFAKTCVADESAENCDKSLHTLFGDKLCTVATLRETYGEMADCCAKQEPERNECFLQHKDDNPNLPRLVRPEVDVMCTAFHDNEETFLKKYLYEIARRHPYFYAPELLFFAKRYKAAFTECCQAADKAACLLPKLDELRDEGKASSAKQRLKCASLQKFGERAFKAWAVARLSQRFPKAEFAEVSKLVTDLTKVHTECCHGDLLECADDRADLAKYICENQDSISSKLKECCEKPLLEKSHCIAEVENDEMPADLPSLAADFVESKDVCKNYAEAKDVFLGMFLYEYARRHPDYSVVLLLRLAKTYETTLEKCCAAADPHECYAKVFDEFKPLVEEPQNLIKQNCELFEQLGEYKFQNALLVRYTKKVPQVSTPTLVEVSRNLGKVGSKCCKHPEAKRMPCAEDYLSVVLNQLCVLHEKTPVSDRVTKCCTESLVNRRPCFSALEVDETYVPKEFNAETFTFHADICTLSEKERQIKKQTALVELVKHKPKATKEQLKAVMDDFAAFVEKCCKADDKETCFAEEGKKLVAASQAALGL

Compound `C[C@@H](O)[C@H](NC(=O)[C@@H]1CSSC[C@H](NC(=O)[C@@H](Cc2ccccc2)NC(=O)CN2CCN(CC(=O)O)CCN(CC(=O)NCCCC[C@@H](NC(=O)[C@@H](CNC(=O)C[N+](C)(C)Cc3ccc([Si](F)(C(C)(C)C)C(C)(C)C)cc3)NC(=O)[C@@H](CCCNC(N)=O)NC(=O)[C@@H](CCCNC(N)=O)NC(=O)[C@H](N)CCCNC(N)=O)C(=O)O)CCN(CC(=O)O)CC2)C(=O)N[C@@H](Cc2ccc(O)cc2)C(=O)N[C@H](Cc2c[nH]c3ccccc23)C(=O)N[C@@H](CCCCN)C(=O)N[C@@H]([C@@H](C)O)C(=O)N1)C(=O)O` [[^18/natF][^natGa]rhTATE2.1, metal not drawn] came in with an Internalization in the data set on AR42J cells of 536%. The “HSA HPAC” value in data set [1] was 98.8%. The “LogDpH=7.4” value in data set [2] (mean of n = 8) is recorded as −2.27.
`C[C@@H](O)[C@H](NC(=O)[C@@H]1CSSC[C@H](NC(=O)[C@@H](Cc2ccccc2)NC(=O)CN2CCN(CC(=O)O)CCN(CC(=O)NCCCC[C@@H](NC(=O)[C@@H](CNC(=O)C[N+](C)(C)Cc3ccc([Si](F)(C(C)(C)C)C(C)(C)C)cc3)NC(=O)[C@@H](CCCNC(N)=O)NC(=O)[C@@H](CCCNC(N)=O)NC(=O)[C@H](N)CCC(=O)O)C(=O)O)CCN(CC(=O)O)CC2)C(=O)N[C@@H](Cc2ccc(O)cc2)C(=O)N[C@H](Cc2c[nH]c3ccccc23)C(=O)N[C@@H](CCCCN)C(=O)N[C@@H]([C@@H](C)O)C(=O)N1)C(=O)O` [[^18/natF][^natGa]rhTATE2.2, metal not drawn] had an Internalization in the data set on AR42J cells of 550%. Besides, the “HSA HPAC” value in data set [1] is 94.3%. Besides, the tissue uptake at 1 h in data set [3] (adrenal glands, AR42J tumor-bearing CD1 nu/nu mice, read-out: Biodistribution Adrenal Glands) was 4.35 ± 0.69 %ID/g; in data set [3] (blood, AR42J tumor-bearing CD1 nu/nu mice, read-out: Biodistribution Blood), 0.39 ± 0.19 %ID/g; in data set [3] (femur, AR42J tumor-bearing CD1 nu/nu mice, read-out: Biodistribution Femur), 1.7 ± 0.45 %ID/g; in data set [3] (heart, AR42J tumor-bearing CD1 nu/nu mice, read-out: Biodistribution Heart) it was 0.33 ± 0.01 %ID/g; in data set [3] (intestine, AR42J tumor-bearing CD1 nu/nu mice, read-out: Biodistribution Intestine), 2.87 ± 0.15 %ID/g; in data set [3] (kidney, AR42J tumor-bearing CD1 nu/nu mice, read-out: Biodistribution Kidney), 32.6 ± 3.5 %ID/g. The tissue uptake at 1 h in data set [3] (liver, AR42J tumor-bearing CD1 nu/nu mice, read-out: Biodistribution Liver) came to 2.43 ± 0.36 %ID/g; in data set [3] (lung, AR42J tumor-bearing CD1 nu/nu mice, read-out: Biodistribution Lung), 6.29 ± 0.65 %ID/g; in data set [3] (muscle, AR42J tumor-bearing CD1 nu/nu mice, read-out: Biodistribution Muscle), 0.06 ± 0.01 %ID/g; in data set [3] (pancreas, AR42J tumor-bearing CD1 nu/nu mice, read-out: Biodistribution Pancreas) it was 31.5 ± 2.32 %ID/g; in data set [3] (spleen, AR42J tumor-bearing CD1 nu/nu mice, read-out: Biodistribution Spleen), 1.31 ± 0.2 %ID/g; in data set [3] (stomach, AR42J tumor-bearing CD1 nu/nu mice, read-out: Biodistribution Stomach) it was 13.4 ± 1.6 %ID/g. In addition, the tissue uptake at 1 h in data set [3] (tumor (AR42J xenograft), AR42J xenograft, CD1 nu/nu mice, read-out: Biodistribution Tumor) came to 27.9 ± 4.78 %ID/g. In addition, the “LogDpH=7.4” value in data set [2] (mean of n = 8) is listed as −2.30.
In the data set on AR42J cells, `C[C@@H](O)[C@H](NC(=O)[C@@H]1CSSC[C@H](NC(=O)[C@@H](Cc2ccccc2)NC(=O)CN2CCN(CC(=O)O)CCN(CC(=O)NCCCC[C@@H](NC(=O)[C@@H](CNC(=O)C[N+](C)(C)Cc3ccc([Si](F)(C(C)(C)C)C(C)(C)C)cc3)NC(=O)[C@@H](CN)NC(=O)[C@@H](CCC(=O)O)NC(=O)[C@H](N)CCC(=O)O)C(=O)O)CCN(CC(=O)O)CC2)C(=O)N[C@@H](Cc2ccc(O)cc2)C(=O)N[C@H](Cc2c[nH]c3ccccc23)C(=O)N[C@@H](CCCCN)C(=O)N[C@@H]([C@@H](C)O)C(=O)N1)C(=O)O` [[^18/natF][^natGa]rhTATE2.3, metal not drawn] gave an Internalization of 619%. For the same compound, the “HSA HPAC” value in data set [1] stood at 96.0%. For the same compound, the “LogDpH=7.4” value in data set [2] (mean of n = 8) is −2.12.
Consider `C[C@@H](O)[C@H](NC(=O)[C@@H]1CSSC[C@H](NC(=O)[C@@H](Cc2ccccc2)NC(=O)CN2CCN(CC(=O)O)CCN(CC(=O)NCCCC[C@@H](NC(=O)[C@@H](CNC(=O)C[N+](C)(C)Cc3ccc([Si](F)(C(C)(C)C)C(C)(C)C)cc3)NC(=O)[C@@H](CCCCN)NC(=O)[C@@H](CCC(=O)O)NC(=O)[C@H](N)CCC(=O)O)C(=O)O)CCN(CC(=O)O)CC2)C(=O)N[C@@H](Cc2ccc(O)cc2)C(=O)N[C@H](Cc2c[nH]c3ccccc23)C(=O)N[C@@H](CCCCN)C(=O)N[C@@H]([C@@H](C)O)C(=O)N1)C(=O)O` [[^18/natF][^natGa]rhTATE2.4, metal not drawn], for which the Internalization in the data set on AR42J cells was 841%. Moreover, in data set [1], the “HSA HPAC” value is recorded as 92.7%. Also, in data set [2] (mean of n = 8), the “LogDpH=7.4” value is given as −2.28.
On to `C[C@@H](O)[C@H](NC(=O)[C@@H]1CSSC[C@H](NC(=O)[C@@H](Cc2ccccc2)NC(=O)CN2CCN(CC(=O)O)CCN(CC(=O)NC[C@@H](NC(=O)C[N+](C)(C)Cc3ccc([Si](F)(C(C)(C)C)C(C)(C)C)cc3)C(=O)O)CCN(CC(=O)O)CC2)C(=O)N[C@@H](Cc2ccc(O)cc2)C(=O)N[C@H](Cc2c[nH]c3ccccc23)C(=O)N[C@@H](CCCCN)C(=O)N[C@@H]([C@@H](C)O)C(=O)N1)C(=O)O` [[^nat/18F][^natGa]rhTATE1, N-SiFAlin-N, N-Me2-Gly-D-Dap(trans-[^natGa]DOTA-TATE), metal not drawn], for which the “HSA HPAC” value in data set [1] is 95.4%. Further, the “LogDpH=7.4” value is reported as −1.03 in data set [2] (mean of n = 8) and -1.03 in data set [2] (mean of n = 8, listed as [^natGa]rhTATE1).
For the compound `C[C@@H](O)[C@H](NC(=O)[C@@H]1CSSC[C@H](NC(=O)[C@@H](Cc2ccccc2)NC(=O)CN2CCN(CC(=O)O)CCN(CC(=O)NCCCC[C@@H](NC(=O)C[N+](C)(C)Cc3ccc([Si](F)(C(C)(C)C)C(C)(C)C)cc3)C(=O)O)CCN(CC(=O)O)CC2)C(=O)N[C@@H](Cc2ccc(O)cc2)C(=O)N[C@H](Cc2c[nH]c3ccccc23)C(=O)N[C@@H](CCCCN)C(=O)N[C@@H]([C@@H](C)O)C(=O)N1)C(=O)O` [[^nat/18F][^natGa]rhTATE2, N-SiFAlin-N, N-Me2-Gly-D-Lys(trans-[^natGa]DOTA-TATE), metal not drawn], in data set [1], the “HSA HPAC” value is recorded as 94.5%. For the same compound, the “LogDpH=7.4” value in data set [2] (mean of n = 8) was −1.19.
